# In PubChem BioAssay (NCI):
#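 48-hour exposure; five concentrations; linearly interpolated endpoints. TGI denotes the concentration required for complete inhibition of growth.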
# Key:
# Assay in all cases: NCI tumour cell line growth inhibition, 48 h
# T-47D breast = system: T-47D breast
# HCC-2998 colon = system: HCC-2998 colon
# MDA-MB-231 breast = system: MDA-MB-231 breast
# K-562 leukemia = system: K-562 leukemia
# DU-145 prostate = system: DU-145 prostate
# A549 NSCLC = system: A549 NSCLC
# PC-3 prostate = system: PC-3 prostate
# LOX IMVI melanoma = system: LOX IMVI melanoma
# HL-60(TB) leukemia = system: HL-60(TB) leukemia
# SK-OV-3 ovarian = system: SK-OV-3 ovarian
# NCI-H226 lung = system: NCI-H226 lung
# SN12C renal = system: SN12C renal
# NCI/ADR-RES ovarian = system: NCI/ADR-RES ovarian
# SW-620 colon = system: SW-620 colon
# M14 melanoma = system: M14 melanoma
# SK-MEL-2 melanoma = system: SK-MEL-2 melanoma
Structure (SMILES),TGI (T-47D breast) [µM],TGI (HCC-2998 colon) [µM],TGI (MDA-MB-231 breast) [µM],TGI (K-562 leukemia) [µM],TGI (DU-145 prostate) [µM],TGI (A549 NSCLC) [µM],TGI (PC-3 prostate) [µM],TGI (LOX IMVI melanoma) [µM],TGI (HL-60(TB) leukemia) [µM],TGI (SK-OV-3 ovarian) [µM],TGI (NCI-H226 lung) [µM],TGI (SN12C renal) [µM],TGI (NCI/ADR-RES ovarian) [µM],TGI (SW-620 colon) [µM],TGI (M14 melanoma) [µM],TGI (SK-MEL-2 melanoma) [µM]
CC1=C(C)C1[N+](=O)[O-],> 100,> 100,> 100,> 100,> 100,> 100,> 100,> 100,> 100,> 100,> 100,> 100,> 100,> 100,> 100,–
CC(C)=c1sc(=C(C)C)c2c1=NC(C)(C)N=2,> 100,> 100,> 100,–,> 100,> 100,> 100,> 100,> 100,> 100,–,> 100,> 100,> 100,> 100,> 100
O=c1n(-c2ccccc2)c(=O)n2n1C1Cc3ccccc3C12 (stereo unspecified),> 100,–,> 100,> 100,> 100,> 100,> 100,> 100,> 100,> 100,> 100,> 100,> 100,> 100,> 100,> 100
NC1CC(Cl)c2c(Cl)sc(Cl)c21 (stereo unspecified),> 100,> 100,> 100,> 100,> 100,> 100,–,> 100,> 100,> 100,> 100,> 100,> 100,> 100,> 100,> 100
CC(C)(C)OC(=O)NC(CCC(=O)OCc1ccccc1)C(=O)NCCCO (stereo unspecified),> 100,> 100,> 100,> 100,> 100,> 100,–,> 100,> 100,> 100,> 100,> 100,> 100,> 100,> 100,> 100
COc1cccc(-c2nc3ccccc3c(=O)[nH]2)c1OC,> 100,> 100,> 100,–,> 100,> 100,> 100,–,–,> 100,> 100,> 100,> 100,> 100,> 100,> 100
COc1ccc2c(c1)-c1[nH]c3ccc(OC)cc3c1CC2,36.6,31.4,35,39.6,32.9,30.2,24.1,29.8,–,33.8,24.3,29.3,24.8,49.4,29.5,28.4
CN1C(=O)C(c2c[nH]c3ccccc23)N(C)C(=O)C1c1c[nH]c2ccccc12 (stereo unspecified),> 100,> 100,> 100,> 100,> 100,> 100,> 100,> 100,> 100,> 100,–,> 100,> 100,> 100,> 100,–
